From patent publication US20030212014A1 (priority 2000, published 2003)

Tests used:
[1] = tested on: AMP-activated protein kinase (AMPK); assay: AMP-activated protein kinase activity in HUVEC incubated with AICAR; type: cell-based, human
Procedure: The enzyme was assayed in a reaction mixture containing either no AMP or 0.2 mM 5′-AMP. The difference in the activity is the AMP-activated kinase activity. […] This indicates the presence of AMPK and AMPKK in HUVEC.
One of the major ATP users, the Na^+/K^+pump, was investigated. The activity of this pump was tested by measuring the uptake of radioactive rubidium in the absence and presence of ouabain, an Na^+/K^+pump inhibitor. The difference in uptake, which is referred to as ouabain-sensitive Rb^+uptake, is the Na^+/K^+pump activity. […] When the ouabain sensitive component was calculated, no ,difference was seen between the two incubations, (2.11±0.9 and 3.3±0.9 pmol/min/mg protein), thus leading us to believe that no change in Na^+/K^+pump activity had occurred. […] The AMPK activity remained high with a longer incubation time up to 120 minutes.

human retinal pericytes = assay: Ceramide and DAG levels by diacylglycerol kinase method in pericytes; type: cell-based
Procedure: Apoptosis was induced by incubating the cells with a medium containing 0-0.5 mM palmitic acid for 3 days. Apoptotic cells were determined by conventional TUNEL staining. Ceramide and DAG levels were measured the by diacylgycerol kinase method using 32P-ATP.

HUVEC [2] = assay: Hyperglycemia-induced apoptosis in HUVEC (TUNEL); type: cell-based, human; settings: 30 mM glucose + 1 mM AICAR
Procedure: (A) Typical TUNEL staining (dark brown) with methylene blue counter-staining. TUNEL positive cells show a typical apoptotic configuration with shrinkage and nuclear fragmentation. […] The percentage of TUNEL positive cells was determined in 3 wells of 6 well plates (24 hr) or in eight of 60 mm dishes. Data are means ±SD.*p<0.05; vs 5 mM glucose. † p<0.05; vs 30 mM glucose alone;

caspase-3 = assay: Caspase-3 activity in HUVEC incubated with 30 mM glucose; type: cell-based, human; settings: 30 mM glucose + AICAR, 24 hr
From the text: A similar effect was observed when AMPK activity was increased by infecting HUVEC with constitutively active AMPK using an adenoviral vector (FIG. 9C).

HUVEC [3] = assay: Fatty acid metabolism and malonyl CoA in HUVEC after 24 hr in 30 mM glucose; type: cell-based, human; settings: 30 mM glucose + 1 mM AICAR
Procedure: Fatty acid oxidation was measured over 2 hours after 24 hr prelabeling with ^3H-palmitate. Data are means ±SD (n=4−6). *P<0.05; vs 5 mM glucose. † p<0.05; vs 30 mM glucose;
(§1) We have previously shown that incubation of HUVEC for 2 hr in media containing 30 mM vs 5 mM glucose causes no changes in AMPK activity, malonyl CoA concentration, fatty acid oxidation, or lactate release. […] In addition, it impaired Akt phosphorylation in the presence of insulin (FIG. 11). […] AMPK activity tended to be higher after 24 h of incubation with 30 mM glucose; however, whether it was inappropriately low, in light of the decrease in ATP content (and presumably an increased AMP/ATP ratio), was not ascertained.

Akt = Akt phosphorylation in the presence of insulin in HUVEC; type: cell-based, human; settings: 30 mM glucose + 1 mM AICAR, 24 h
Procedure: Results are means±SE (n=4) *p<0.05 vs 5 mM glucose. † p<0.05 vs 30 mM glucose;
as §1

rats = assay: Acute effects of AICAR on blood and plasma metabolites and hormones in rats; type: in vivo, rat
[4] = tested on: muscle ACC activity and malonyl CoA; assay: ACC activity and malonyl CoA in muscle two hours after AICAR injection; type: in vivo, rat; settings: 250 mg/kg
high-fat fed (HFF) rats [5] = assay: Acute effects of a single AICAR injection in high-fat fed (HFF) rats; type: in vivo, rat
Procedure: Plasma parameters: This experiment was performed on HFF rats under conscious conditions following 5-7 hours of fasting. After catheters were connected to blood sampling syringes, the animals were allowed to rest for 40-50 min. Two blood samples were taken 20 min. apart, constituting the basal samples (time 0). […] Blood samples were collected at 30, 60, 90 and 120 min. after the injection. After the last sample was taken, the animals were euthanized. […] Tissue parameters: The glycogen and triglyceride content of two types of skeletal muscle and liver at the end of the experiment were determined (Table 9, FIG. 27).

high-fat fed (HFF) rats [6] = assay: Euglycemic hyperinsulinemic clamp in HFF rats 24 h after AICAR injection; type: in vivo, rat
Procedure: They were then returned to their cages and given a high-fat meal. […] To avoid the possible effects of a reduced caloric intake, the HFF-Con animals were pair-fed with HFF-AIC rats. 24 h after the injection, and after a 5-7 h fasting period, the rats were submitted to an euglycemic hyperinsulinemic clamp, to determine the whole body insulin sensitivity.

[7] = 1 mM AICAR vs 0.5 mM palmitate alone
[8] = HFF rats, 250 mg/kg s.c., vs HFF-Con
[9] = clamp 24 h after 250 mg/kg AICAR

NC(=O)c1ncn([C@@H]2O[C@H](CO)[C@@H](O)[C@H]2O)c1N [AICAR, 5-aminoimidizole-4-carboxamide riboside]
AMP-activated kinase activity ([1]; 0.2 mM AICAR, 30 minutes, HUVEC): 15.8±0.4 pmol/min/mg protein
AMP-activated kinase activity ([1]; 0.5 mM AICAR, 30 minutes, HUVEC): 22.5±0.3 pmol/min/mg protein
AMP-activated kinase activity ([1]; 2 mM AICAR, 30 minutes, HUVEC (concentration series)): 30.9±0.2 pmol/min/mg protein
AMP-activated kinase activity ([1]; 2 mM AICAR, at 30 minutes (time course)): 30.8 pmol/min/mg protein
AMP-activated kinase activity ([1]; 2 mM AICAR, at 60 minutes (time course)): 31.5 pmol/min/mg protein
AMP-activated kinase activity ([1]; 2 mM AICAR, at 120 minutes (time course)): 32.3 pmol/min/mg protein
DAG levels (human retinal pericytes; 0.5 mM palmitate + 1 mM AICAR): 24±5 nmol/mg protein
ceramide levels (human retinal pericytes; 0.5 mM palmitate + 1 mM AICAR): 3.8±1 nmol/mg protein
decrease in DAG levels (human retinal pericytes; [7]): 50%
decrease in ceramide levels (human retinal pericytes; [7]): 60%
apoptotic rate (TUNEL-positive cells) (HUVEC [2]; 24 hours): no affect
increase in apoptosis caused by hyperglycemia (HUVEC [2]; 72 hours): completely prevented
caspase-3 activity (caspase-3): 833±14 arbitrary unit
concentration of malonyl-CoA (HUVEC [3]): even lower than that in cells incubated with 5 mM glucose
diminished fatty acid oxidation caused by 30 mM glucose (HUVEC [3]): completely prevented
increased incorporation of radioactive glucose and palmitate into diacylglycerol caused by 30 mM glucose (HUVEC [3]): completely prevented
impaired Akt phosphorylation in the presence of insulin caused by 30 mM glucose (Akt): completely prevented
blood glucose levels (rats; 250 mg/kg, 2-6 hours following administration): moderately diminished
blood lactate (rats; acute, high doses): increase
plasma free fatty acid (FFA) levels (rats; acute, high doses): decrease
plasma leptin (rats; all doses studied, at 2 hrs): did not significantly alter
plasma triglycerides (rats; all doses studied, at 2 hrs): did not significantly alter
ACC activity in muscle [4]: did not depress ACC significantly
malonyl CoA levels in muscle [4]: no effect
changes in tissue triglyceride content (high-fat fed (HFF) rats [5]; 2 h after the injection): not significant
increase in glycogen content in white muscle (high-fat fed (HFF) rats [5]; 2 h after the injection): 16%
reduction in liver glycogen (high-fat fed (HFF) rats [5]; 2 h after the injection): 52%
duration of decrease in plasma glucose (high-fat fed (HFF) rats [5]; HFF rats, 250 mg/kg s.c.): at least 60 minutes
plasma FFA (high-fat fed (HFF) rats [5]; HFF rats, 250 mg/kg s.c.): remained unchanged
time to decrease in plasma glucose (high-fat fed (HFF) rats [5]; HFF rats, 250 mg/kg s.c.): ≤ 30 min
plasma glucose (high-fat fed (HFF) rats [5]; HFF rats, 250 mg/kg s.c., 30-120 min post-injection): decrease
plasma glycerol (high-fat fed (HFF) rats [5]; [8]): increase
plasma triglyceride levels (high-fat fed (HFF) rats [5]; [8]): decrease
plasma insulin (high-fat fed (HFF) rats [5]; HFF rats, 250 mg/kg s.c., vs saline): decrease
levels of muscle triglycerides or long chain fatty acyl CoA (LCFACoA) (high-fat fed (HFF) rats [6]; after clamp): no significant change
decrease in liver malonyl-CoA (high-fat fed (HFF) rats [6]; after clamp, vs HFF-Con): 21%
reduction of liver triglycerides accumulation (high-fat fed (HFF) rats [6]; after clamp, vs HFF-Con): 33%
food eaten overnight (high-fat fed (HFF) rats [6]; after single 250 mg/kg s.c. injection, high-fat meal): minor reduction
reduction of malonyl-CoA in red muscle (high-fat fed (HFF) rats [6]; after the clamp, vs HFF-Con): 44%
basal plasma glucose (hyperglycemia caused by high-fat feeding) (high-fat fed (HFF) rats [6]; basal state, 24 h after AICAR): decreased the hyperglycemia
other basal plasma parameters (insulin, FFA, triglycerides) (high-fat fed (HFF) rats [6]; basal state, vs HFF-Con): did not alter
Rd (high-fat fed (HFF) rats [6]; [9]): slight but not significant increase
increase in glucose infusion rate (GIR) (high-fat fed (HFF) rats [6]; [9]): 50%
HGO under insulin (high-fat fed (HFF) rats [6]; clamp 24 h after 250 mg/kg AICAR, p>0.05 vs. Chow): close to the normal value
increase in Rg' (rate of glucose uptake) in white muscle (high-fat fed (HFF) rats [6]; clamp 24 h after AICAR): 79%
Rg' in red muscle (high-fat fed (HFF) rats [6]; clamp 24 h after AICAR, p=0.085): tendency of increased
insulin-stimulated glucose incorporation into glycogen (high-fat fed (HFF) rats [6]; white and red muscle): significantly increased
